Measured values: patent US20250195521A1 (Revolution Medicines, Inc., priority 2020, published 2025)
Read-outs that look alike come from different tables or passages of the source.

Legend:
[1] = biological target: KRAS G12V binding to BRAF RBD (Homo sapiens (Human), UniProt P01116+P62937, G12V); assay: Ras-Raf disruption/FRET/MOA assay, KRAS G12V; type: biochemical
Description: Note—The following protocol describes a procedure for monitoring disruption of K-Ras G12C(GMP-PNP) binding to BRAF^RBD by a compound of the invention. This protocol may also be executed substituting other Ras proteins or nucleotides.
The purpose of this biochemical assay was to measure the ability of test compounds to facilitate ternary complex formation between a nucleotide-loaded K-Ras isoform and Cyclophilin A; the resulting ternary complex disrupts binding to a BRAF^RBD construct, inhibiting K-Ras signaling through a RAF effector. Data is reported as IC50 values.
Compound was present in plate wells as a 10-point 3-fold dilution series starting at a final concentration of 30 μM. After incubation at 25° C. for 3 hours, a mixture of Anti-His Eu—W1024 and anti-GST allophycocyanin was then added to assay sample wells at final concentrations of 10 nM and 50 nM, respectively, and the reaction incubated for an additional 1.5 hours. […] Compounds that facilitate disruption of a K-Ras: RAF complex were identified as those eliciting a decrease in the TR-FRET ratio relative to DMSO control wells.

[2] = tested on: Capan-1 cells (K-Ras G12V); assay: CellTiter-Glo cell viability, Capan-1; type: cell-based, human; conditions: Homo sapiens, CAPAN-1, 120 h, read-out: Capan-1 Cell Viability IC50
Procedure, shortened: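 Viability read by luminescence on day 5 after direct compound addition to cells, following ~30 min room-temperature equilibration. Values expressed as percent of mean DMSO signal, curves fitted with a four-parameter logistic model.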

KRAS G13C = KRAS G13C (Homo sapiens (Human), UniProt P01116+P62937, G13C); assay: Ras-Raf disruption/FRET/MOA assay (BRAF RBD, Cyclophilin A); type: biochemical; conditions: read-out: KRAS G13C FRET IC50
KRAS G13C, sequence (P01116 other isoform, or with tags, fused parts or gaps G13C): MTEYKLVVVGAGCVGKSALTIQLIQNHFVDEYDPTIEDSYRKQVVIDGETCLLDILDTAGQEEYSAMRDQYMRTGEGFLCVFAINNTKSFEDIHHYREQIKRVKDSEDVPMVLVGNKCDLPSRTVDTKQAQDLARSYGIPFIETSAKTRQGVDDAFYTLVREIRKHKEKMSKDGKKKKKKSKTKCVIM
KRAS G13C, sequence (P62937 whole entry): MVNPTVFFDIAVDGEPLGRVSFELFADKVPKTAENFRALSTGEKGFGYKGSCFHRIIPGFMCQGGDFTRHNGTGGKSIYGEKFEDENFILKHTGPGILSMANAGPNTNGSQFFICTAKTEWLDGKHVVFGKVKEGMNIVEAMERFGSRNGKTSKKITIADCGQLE
Procedure, shortened: (§1)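 Ras-GMPPNP (12.5 nM), BRAF RBD (50 nM) and 25 μM Cyclophilin A were incubated with compound for 3 h at 25° C, then detected 1.5 h with anti-His Eu and anti-GST APC; IC50 values follow from the reduced TR-FRET ratio.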

KRAS G12V = KRAS G12V (Homo sapiens (Human), UniProt P01116+P62937, G12V); assay: as above; type: biochemical; conditions: read-out: KRAS G12V FRET IC50
KRAS G12V, sequence (P01116 other isoform, or with tags, fused parts or gaps G12V): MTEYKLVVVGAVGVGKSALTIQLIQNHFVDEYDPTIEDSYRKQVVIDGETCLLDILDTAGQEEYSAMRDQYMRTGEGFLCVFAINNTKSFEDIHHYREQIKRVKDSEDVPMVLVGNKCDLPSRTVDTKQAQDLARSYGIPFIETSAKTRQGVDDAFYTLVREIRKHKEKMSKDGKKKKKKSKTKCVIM
KRAS G12V, sequence (P62937 whole entry): as the sequence (P62937 whole entry) above
Procedure, shortened: as §1

KRAS WT = KRAS WT (Homo sapiens (Human), UniProt P01116+P62937); assay: as above; type: biochemical; conditions: read-out: KRAS WT FRET data IC50
KRAS WT, sequence (P01116 other isoform, or with tags, fused parts or gaps): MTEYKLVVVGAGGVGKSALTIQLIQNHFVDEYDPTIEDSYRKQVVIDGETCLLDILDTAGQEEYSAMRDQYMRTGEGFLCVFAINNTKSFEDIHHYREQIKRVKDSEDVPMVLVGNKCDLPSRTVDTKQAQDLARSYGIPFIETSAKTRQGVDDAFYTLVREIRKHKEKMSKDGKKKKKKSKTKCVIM
KRAS WT, sequence (P62937 whole entry): as the sequence (P62937 whole entry) above
Procedure, shortened: as §1

KRAS G12C = KRAS G12C (Homo sapiens (Human), UniProt P01116+P62937, G12C); assay: as above; type: biochemical; conditions: read-out: KRAS G12C FRET IC50
KRAS G12C, sequence (P01116-2 other isoform, or with tags, fused parts or gaps G12C): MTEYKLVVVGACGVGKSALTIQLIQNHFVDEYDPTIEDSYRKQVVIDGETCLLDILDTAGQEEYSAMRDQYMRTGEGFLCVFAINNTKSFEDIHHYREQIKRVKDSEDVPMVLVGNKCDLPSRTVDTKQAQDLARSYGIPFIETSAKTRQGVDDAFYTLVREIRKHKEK
KRAS G12C, sequence (P62937 whole entry): as the sequence (P62937 whole entry) above
Procedure, shortened: as §1

KRAS G12D = KRAS G12D (Homo sapiens (Human), UniProt P01116+P62937, G12D); assay: as above; type: biochemical; conditions: read-out: KRAS G12D FRET IC50
KRAS G12D, sequence (P01116 other isoform, or with tags, fused parts or gaps G12D): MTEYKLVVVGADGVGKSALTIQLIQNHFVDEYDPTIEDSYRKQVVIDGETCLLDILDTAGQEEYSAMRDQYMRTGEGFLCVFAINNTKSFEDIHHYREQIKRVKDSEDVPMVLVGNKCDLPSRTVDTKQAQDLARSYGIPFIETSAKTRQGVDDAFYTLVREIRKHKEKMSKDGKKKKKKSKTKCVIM
KRAS G12D, sequence (P62937 whole entry): as the sequence (P62937 whole entry) above
Procedure, shortened: as §1

[3] = biological target: K-Ras G12C(GMP-PNP) binding to BRAF RBD (Homo sapiens (Human), UniProt P01116+P62937, G12C); assay: Disruption of BRAF RBD interaction with K-Ras (FRET / MOA assay), K-Ras G12C; type: biochemical
K-Ras G12C(GMP-PNP) binding to BRAF RBD, sequence (P01116 other isoform, or with tags, fused parts or gaps G12C): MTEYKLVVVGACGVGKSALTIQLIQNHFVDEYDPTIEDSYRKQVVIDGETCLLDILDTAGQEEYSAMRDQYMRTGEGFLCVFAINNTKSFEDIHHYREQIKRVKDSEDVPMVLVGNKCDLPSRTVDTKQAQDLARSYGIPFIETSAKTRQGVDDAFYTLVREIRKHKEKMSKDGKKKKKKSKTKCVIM
K-Ras G12C(GMP-PNP) binding to BRAF RBD, sequence (P62937 whole entry, canonical isoform): as the sequence (P62937 whole entry) above
Procedure, shortened: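 Incubation of compound (up to 30 μM final, 3-fold steps) with GMP-PNP-type loaded Ras isoform, cyclophilin A and BRAF RBD ran 3 h at 25° C, followed by 1.5 h with detection antibodies. Disruption appears as a reduced TR-FRET ratio compared with DMSO controls, expressed as IC50.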

[4] = biological target: KRAS G12S binding to BRAF RBD (Homo sapiens (Human), UniProt P01116+P62937, G12S); assay: Ras-Raf disruption/FRET/MOA assay, KRAS G12S; type: biochemical
KRAS G12S binding to BRAF RBD, sequence (P01116 other isoform, or with tags, fused parts or gaps G12S): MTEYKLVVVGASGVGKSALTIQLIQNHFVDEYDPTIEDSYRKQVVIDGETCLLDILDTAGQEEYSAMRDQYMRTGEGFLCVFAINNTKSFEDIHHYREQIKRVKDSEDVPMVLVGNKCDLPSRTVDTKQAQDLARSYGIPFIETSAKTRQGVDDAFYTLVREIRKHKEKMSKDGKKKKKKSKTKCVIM
KRAS G12S binding to BRAF RBD, sequence (P62937 whole entry): as the sequence (P62937 whole entry) above
Procedure, shortened: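 First, test compounds in a 10-point 3-fold series (30 μM final top) were incubated for 3 hours at 25° C with nucleotide-loaded Ras, cyclophilin A and a BRAF RBD construct. Next, Eu anti-His and allophycocyanin anti-GST detection reagents were added for 1.5 hours. Finally, IC50s were derived from loss of TR-FRET signal against DMSO.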

[5] = biological target: KRAS WT binding to BRAF RBD (Homo sapiens (Human), UniProt P01116+P62937); assay: Ras-Raf disruption/FRET/MOA assay, KRAS WT; type: biochemical
KRAS WT binding to BRAF RBD, sequence (P01116 other isoform, or with tags, fused parts or gaps): as the sequence (P01116 other isoform, or with tags, fused parts or gaps) above
KRAS WT binding to BRAF RBD, sequence (P62937 whole entry): as the sequence (P62937 whole entry) above
Procedure, shortened: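 Compounds (top 30 μM, 3-fold, 10 points) promote Cyclophilin A (25 μM) ternary complex with His6-Ras-GMPPNP (12.5 nM), disrupting GST-BRAF RBD (50 nM) binding; 3 h, 25°C, 25 mM HEPES pH 7.3, 100 mM NaCl, 5 mM MgCl2. Detection reagents (Eu anti-His 10 nM, APC anti-GST 50 nM) added for 1.5 h; IC50 reported.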

KRAS G13D = KRAS G13D (Homo sapiens (Human), UniProt P01116+P62937, G13D); assay: Ras-Raf disruption/FRET/MOA assay (BRAF RBD, Cyclophilin A); type: biochemical; conditions: read-out: KRAS G13D FRET data IC50
KRAS G13D, sequence (P01116 other isoform, or with tags, fused parts or gaps G13D): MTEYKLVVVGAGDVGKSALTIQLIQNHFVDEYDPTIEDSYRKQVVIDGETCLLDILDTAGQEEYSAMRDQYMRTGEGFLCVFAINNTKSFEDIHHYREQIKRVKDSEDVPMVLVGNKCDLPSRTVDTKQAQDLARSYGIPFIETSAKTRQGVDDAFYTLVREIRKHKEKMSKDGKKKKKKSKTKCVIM
KRAS G13D, sequence (P62937 whole entry): as the sequence (P62937 whole entry) above
Procedure, shortened: as §1

NRAS Q61R = NRAS Q61R (Homo sapiens (Human), UniProt P01111+P62937, Q61R); assay: as above; type: biochemical
NRAS Q61R, sequence (P01111 whole entry Q61R): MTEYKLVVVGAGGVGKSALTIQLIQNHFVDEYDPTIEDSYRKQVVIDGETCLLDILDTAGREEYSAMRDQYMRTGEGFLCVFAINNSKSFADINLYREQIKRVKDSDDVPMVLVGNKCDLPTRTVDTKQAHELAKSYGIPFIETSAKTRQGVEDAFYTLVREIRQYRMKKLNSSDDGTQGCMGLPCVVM
NRAS Q61R, sequence (P62937 whole entry): as the sequence (P62937 whole entry) above
Procedure, shortened: (§2)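 Measured: compound-facilitated Cyclophilin A:Ras complex blocking RAF RBD binding. Conditions: 12.5 nM Ras-GMPPNP, 50 nM BRAF RBD, 25 μM CypA, 3 h plus 1.5 h detection. Output: IC50 from TR-FRET ratio.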

NRAS Q61K = NRAS Q61K (Homo sapiens (Human), UniProt P01111+P62937, Q61K); assay: as above; type: biochemical
Procedure, shortened: as §2

NRAS WT = NRAS WT (Homo sapiens (Human), UniProt P01111+P62937); assay: as above; type: biochemical
NRAS WT, sequence (P01111 whole entry): as the sequence (P01111 whole entry Q61R) above, with R61Q counted along it
NRAS WT, sequence (P62937 whole entry): as the sequence (P62937 whole entry) above
Procedure, shortened: as §2

KRAS Q61H = KRAS Q61H (Homo sapiens (Human), UniProt P01116+P62937, Q61H); assay: as above; type: biochemical
KRAS Q61H, sequence (P01116 other isoform, or with tags, fused parts or gaps Q61H): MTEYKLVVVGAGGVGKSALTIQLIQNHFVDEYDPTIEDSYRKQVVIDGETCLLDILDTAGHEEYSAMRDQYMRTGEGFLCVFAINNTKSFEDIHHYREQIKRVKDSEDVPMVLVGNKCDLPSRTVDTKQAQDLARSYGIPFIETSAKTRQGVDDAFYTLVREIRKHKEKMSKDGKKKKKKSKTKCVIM
KRAS Q61H, sequence (P62937 whole entry): as the sequence (P62937 whole entry) above
Procedure, shortened: as §1

Measured: IC50

KRAS G12V binding to BRAF RBD, sequence (P01116 other isoform, or with tags, fused parts or gaps G12V): as the sequence (P01116 other isoform, or with tags, fused parts or gaps G12V) above
KRAS G12V binding to BRAF RBD, sequence (P62937 whole entry): as the sequence (P62937 whole entry) above

CCn1c(-c2cccnc2[C@H](C)OC)c2c3cc(ccc31)-c1csc(n1)C[C@H](NC(=O)[C@H](C(C)C)N(C)C(=O)C1COC1)C(=O)N1CCC[C@H](N1)C(=O)OCC(C)(C)C2 [Compound A245]
> 10000 nM: KRAS G12D
100 to 1000 nM: [2]; K-Ras G12V, 5-day treatment
1000 to 10000 nM: KRAS G13C | KRAS G12V | KRAS WT | KRAS G12C
10 to 100 nM: [1]
< 10 nM: [3]; KRAS G12C FRET IC50

CCn1c(-c2cccnc2[C@H](C)OC)c2c3cc(ccc31)-c1cc(O)cc(c1)C[C@H](NC(=O)[C@@H](C(C)C)N(C)C(C)=O)C(=O)N1CCC[C@H](N1)C(=O)OCC(C)(C)C2 [Compound A256]
10 to 100 nM: [4] | [5]
> 10000 nM: KRAS G12D
1000 to 10000 nM: KRAS G12V | KRAS WT | KRAS G12C | KRAS G13D
100 to 1000 nM: KRAS G13C

CCn1c(-c2cccnc2[C@H](C)OC)c2c3cc(ccc31)-c1csc(n1)C[C@H](NC(=O)[C@H](C(C)C)N(C)C(=O)N1C[C@@H](C)N(C)C[C@@H]1C)C(=O)N1CCC[C@H](N1)C(=O)OCC(C)(C)C2 [Compound A292]
100 to 1000 nM: [2]; K-Ras G12V, 5-day treatment | KRAS WT | KRAS G12C
1000 to 10000 nM: KRAS G13C | KRAS G12V | KRAS G13D | KRAS G12D
10 to 100 nM: [4] | [1]; read-out: KRAS G12V FRET IC50
< 10 nM: [3]; read-out: KRAS G12C FRET IC50

CCn1c(-c2cccnc2[C@H](C)OC)c2c3cc(ccc31)-c1csc(n1)C[C@H](NC(=O)[C@H](C(C)C)N(C)C(=O)N1CC(N3CCC3)C1)C(=O)N1CCC[C@H](N1)C(=O)OCC(C)(C)C2 [Compound A295]
100 to 1000 nM: KRAS G13C | KRAS G12V | KRAS WT | KRAS G12C | KRAS G13D
10 to 100 nM: [4] | [5] | [1]; read-out: KRAS G12V FRET IC50 | [2]; K-Ras G12V, 5-day treatment | [3]; read-out: KRAS G12C FRET IC50
1000 to 10000 nM: KRAS G12D

CCn1c(-c2cccnc2[C@H](C)OC)c2c3cc(ccc31)-c1csc(n1)C[C@H](NC(=O)[C@H](C(C)C)N(C)C(=O)N1C[C@H](C)N(C)C[C@H]1C)C(=O)N1CCC[C@H](N1)C(=O)OCC(C)(C)C2 [Compound A300]
< 10 nM: [3]; read-out: KRAS G12C FRET IC50
10 to 100 nM: [4] | [5] | [1]; read-out: KRAS G12V FRET IC50
1000 to 10000 nM: [2]; K-Ras G12V, 5-day treatment | KRAS G13C | KRAS G12V | KRAS WT | KRAS G12C | KRAS G13D | KRAS G12D

CCn1c(-c2cccnc2[C@H](C)OC)c2c3cc(ccc31)-c1csc(n1)C[C@H](NC(=O)[C@H](C(C)C)N(C)C(=O)N1CC(N3CCOCC3)C1)C(=O)N1CCC[C@H](N1)C(=O)OCC(C)(C)C2 [Compound A338]
100 to 1000 nM: KRAS G13C | KRAS G12V | KRAS WT | KRAS G13D
1000 to 10000 nM: KRAS G12D
10 to 100 nM: [4] | [5] | [1]; read-out: KRAS G12V FRET IC50 | [2]; K-Ras G12V, 5-day treatment | KRAS G12C | [3]; read-out: KRAS G12C FRET IC50

CCn1c(-c2cccnc2[C@H](C)OC)c2c3cc(ccc31)-c1csc(n1)C[C@H](NC(=O)C1CC1)C(=O)N1CCC[C@H](N1)C(=O)OCC(C)(C)C2 [Compound A367]
1000 to 10000 nM: NRAS Q61R | KRAS G13D | KRAS G12D
10 to 100 nM: [4] | [5] | [3]; read-out: KRAS G12C FRET IC50
100 to 1000 nM: [2]; K-Ras G12V, 5-day treatment | KRAS G13C | KRAS G12V | NRAS Q61K | NRAS WT | KRAS WT | KRAS Q61H | KRAS G12C

CCn1c(-c2cccnc2[C@H](C)OC)c2c3cc(ccc31)-c1cc(O)cc(c1)C[C@H](NC(=O)[C@H](C(C)C)N(C)C(=O)[C@H]1CCN(C(=O)[C@@H](C)N(C)C)C1)C(=O)N1CCC[C@H](N1)C(=O)OCC(C)(C)C2 [Compound A386]
100 to 1000 nM: [2]; K-Ras G12V, 5-day treatment | KRAS G12V
10 to 100 nM: [5] | KRAS G13C | KRAS WT | KRAS G12C | KRAS G13D | KRAS G12D | [3]; read-out: KRAS G12C FRET IC50

CCn1c(-c2cccnc2[C@H](C)OC)c2c3cc(ccc31)-c1cc(O)cc(c1)C[C@H](NC(=O)[C@H](C(C)C)N(C)C(=O)C1CNCCNC1)C(=O)N1CCC[C@H](N1)C(=O)OCC(C)(C)C2 [Compound A432]
1000 to 10000 nM: KRAS G12V
100 to 1000 nM: KRAS WT | KRAS G12D
10 to 100 nM: [5] | KRAS G13C | KRAS G12C | KRAS G13D | [3]; read-out: KRAS G12C FRET IC50

CCn1c(-c2cccnc2[C@H](C)OC)c2c3cc(ccc31)-c1csc(n1)C[C@H](NC(=O)[C@H](C(C)C)N(C)C(=O)N1CCO[C@@]3(CCN(C)C3)C1)C(=O)N1CCC[C@H](N1)C(=O)OCC(C)(C)C2 [Compound A436]
100 to 1000 nM: KRAS G13C | NRAS Q61R | KRAS G12V | NRAS Q61K | NRAS WT | KRAS WT | KRAS Q61H | KRAS G12C | KRAS G13D | KRAS G12D
10 to 100 nM: [5] | [2]; K-Ras G12V, 5-day treatment | [3]; read-out: KRAS G12C FRET IC50

CCn1c(-c2cccnc2[C@H](C)OC)c2c3cc(ccc31)-c1csc(n1)[C@@H](OC)[C@H](NC(=O)[C@H](C(C)C)N(C)C(=O)N(C)C)C(=O)N1CCC[C@H](N1)C(=O)OCC(C)(C)C2 [Compound A598, (2S)—N-((6^3S,3S,4S,Z)-1^1-ethyl-3-methoxy-1^2-(2-((S)-1-methoxyethyl)pyridin-3-yl)-10,10-dimethyl-5,7-dioxo-6^1,6^2,6^3,6^4,6^5,6^6-hexahydro-1^1H-8-oxa-2 (4,2)-thiazola-1 (5,3)-indola-6 (1,3)-pyridazinacycloundecaphane-4-yl)-3-methyl-2-(1,3,3-trimethylureido) butanamide]
100 to 1000 nM: [2] | KRAS G13C | NRAS Q61R | KRAS G12V | NRAS WT | KRAS WT | KRAS Q61H | KRAS G13D
1000 to 10000 nM: KRAS G12D
10 to 100 nM: [4] | [5] | KRAS G12C | [3]; read-out: KRAS G12C FRET IC50
